In patent US7968570B2, “Isoindolone compounds and their use as metabotropic glutamate receptor potentiators” (AstraZeneca AB, priority 2004, dated 2011):

Target: T1, human mGluR2 receptor (Homo sapiens, UniProt Q14416)
T1 construct: expressed in transfected cells
Assay: [35S]-GTPγS binding assay of mGluR2 receptor activation
Assay type: biochemical
Settings: not given
Procedure: A [^35S]-GTPγS binding assay was used to functionally assay mGluR2 receptor activation. The allosteric activator activity of compounds at the human mGluR2 receptor were measured using a [^35S]-GTPγS binding assay with membranes prepared from CHO cells which stably express the human mGluR2. The assay is based upon the principle that agonists bind to G-protein coupled receptors to stimulate GDP-GTP exchange at the G-protein. Since [^35S]-GTPγS is a non-hydrolyzable GTP analog, it can be used to provide an index of GDP-GTP exchange and, thus, receptor activation. The GTPγS binding assay therefore provides a quantitative measure of receptor activation.
Membranes were prepared from CHO cells stably transfected with human mGluR2. Membranes (30 μg protein) were incubated with test compound (3 nM to 300 μM) for 15 minutes at room temperature prior to the addition of 1 μM glutamate, and incubated for 30 min at 30° C. in 500 μl assay buffer (20 mM HEPES, 100 mM NaCl, 10 mM MgCl2), containing 30 μM GDP and 0.1 nM [^35S]-GTPγS (1250 Ci/mmol). Reactions were carried out in triplicate in 2 ml polypropylene 96-well plates. Reactions were terminated by vacuum filtration using a Packard 96-well harvester and Unifilter-96, GF/B filter microplates. The filter plates were washed 4×1.5 ml with ice-cold wash buffer (10 mM sodium phosphate buffer, pH 7.4). The filter plates were dried and 35 μl of scintillation fluid (Microscint 20) was added to each well. The amount of radioactivity bound was determined by counting plates on the Packard TopCount. Data was analyzed using GraphPad Prism, and EC50 and Emax values (relative to the maximum glutamate effect) were calculated using non-linear regression.

T1 sequence (Q14416 19-872): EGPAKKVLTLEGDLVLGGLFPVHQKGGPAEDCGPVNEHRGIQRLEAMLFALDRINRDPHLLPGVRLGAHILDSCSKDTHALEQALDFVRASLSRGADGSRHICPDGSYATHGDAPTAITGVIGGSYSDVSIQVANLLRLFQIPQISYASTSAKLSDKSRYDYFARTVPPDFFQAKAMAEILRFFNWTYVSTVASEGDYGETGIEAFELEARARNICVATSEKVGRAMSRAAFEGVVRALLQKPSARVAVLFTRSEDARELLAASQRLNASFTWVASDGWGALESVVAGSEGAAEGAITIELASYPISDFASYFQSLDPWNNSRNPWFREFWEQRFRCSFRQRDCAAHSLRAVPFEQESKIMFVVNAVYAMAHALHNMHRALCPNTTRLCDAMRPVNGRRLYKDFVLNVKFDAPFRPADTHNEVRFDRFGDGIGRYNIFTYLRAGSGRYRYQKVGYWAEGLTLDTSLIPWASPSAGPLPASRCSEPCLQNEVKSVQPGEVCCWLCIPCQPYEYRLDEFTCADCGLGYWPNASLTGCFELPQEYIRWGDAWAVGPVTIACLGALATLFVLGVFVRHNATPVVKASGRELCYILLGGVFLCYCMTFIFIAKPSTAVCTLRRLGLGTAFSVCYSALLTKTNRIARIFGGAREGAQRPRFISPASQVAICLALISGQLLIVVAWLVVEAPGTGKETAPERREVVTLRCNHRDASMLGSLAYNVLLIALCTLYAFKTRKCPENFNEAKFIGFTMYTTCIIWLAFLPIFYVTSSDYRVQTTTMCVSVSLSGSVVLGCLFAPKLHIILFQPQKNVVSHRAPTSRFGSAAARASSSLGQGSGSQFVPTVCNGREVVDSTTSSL

EC50	Compound
820 nM	Cc1cc(CC2CCN(C3CCCC3)CC2)cc2c1C(=O)N(Cc1ccc(OC(F)(F)F)cc1)C2 [Example 173, 5-(1-cyclopentyl-piperidin-4-ylmethyl)-7-methyl-2-(4-trifluorometh-oxy-benzyl)-2,3-dihydro-isoindol-1-one]
470 nM	CNCc1noc(-c2cc(C)c3c(c2)CN(Cc2ccc(OC(F)(F)F)cc2)C3=O)n1 [Example 179, 7-Methyl-5-(3-methylamino-methyl-[1,2,4]oxadiazol-5-yl)-2-(4-trifluorometh-oxy-benzyl)-2,3-dihydro-isoindol-1-one]

Same assay, conditions: membranes from CHO cells stably expressing human mGluR2; 1 μM glutamate

EC50	Compound
2020 nM	Cc1cc(C2CCNCC2)cc2c1C(=O)N(Cc1ccc(OC(F)(F)F)cc1)C2 [Example 158, 7-Methyl-5-piperidin-4-yl-2-(4-trifluoromethoxy-benzyl)-2,3-dihydro-isoindol-1-one]
550 nM	Cc1cc(C(=O)N2CCN(Cc3ccncc3)CC2)cc2c1C(=O)N(Cc1ccc(OC(F)(F)F)cc1)C2 [Example 162, 7-Methyl-5-(4-pyridin-4-ylmethyl-piperazine-1-carbonyl)-2-(4-trifluoromethoxy-benzyl)-2,3-dihydro-isoindol-1-one]
100 nM	Cc1cc(N2CCC(N(C)C)C2)cc2c1C(=O)N(Cc1ccc(Oc3ccccc3)cc1)C2 (centres unmarked) [Example 130, 5-(3-Dimethylamino-pyrrolidin-1-yl)-7-methyl-2-(4-phenoxy-benzyl)-2,3-dihydro-isoindol-1-one]
6570 nM	COCCN1CCN(c2ccc3c(c2)CN(Cc2ccc(OC(F)(F)F)cc2)C3=O)CC1 [Example 147, 5-[4-(2-Methoxy-ethyl)-piperazin-1-yl]-2-(4-trifluoromethoxy-benzyl)-2,3-dihydro-isoindol-1-one]
1210 nM	Cc1cc(C(=O)N2CCN(CCc3ccncc3)CC2)cc2c1C(=O)N(Cc1ccc(OC(F)(F)F)cc1)C2 [Example 163, 7-Methyl-5-[4-(2-pyridin-4-yl-ethyl)piperazine-1-carbonyl]-2-(4-trifluoromethoxy-benzyl)-2,3-dihydro-isoindol-1-one]
360 nM	Cc1cc(N2CCN(Cc3cccnc3)CC2)cc2c1C(=O)N(Cc1ccc(OC(F)(F)F)cc1)C2 [Example 138, 7-Methyl-5-(4-pyridin-3-ylmethyl-piperazin-1-yl)-2-(4-trifluoromethoxy-benzyl)-2,3-dihydro-isoindol-1-one]
700 nM	Cc1cc(N2CCN(Cc3ccncc3)CC2)cc2c1C(=O)N(Cc1ccc(OC(F)(F)F)cc1)C2 [Example 136, 7-Methyl-5-(4-pyridin-4-ylmethyl-piperazin-1-yl)-2-(4-trifluoromethoxy-benzyl)-2,3-dihydro-isoindol-1-one]
750 nM	Cc1cc(N2CCN(CCCN(C)C)CC2)cc2c1C(=O)N(Cc1ccc(OC(F)(F)F)cc1)C2 [Example 141, 5-[4-(3-Dimethylamino-propyl)-piperazin-1-yl]-7-methyl-2-(4-trifluoro-methoxy-benzyl)-2,3-dihydro-isoindol-1-one]
2640 nM	O=C1c2ccc(N3CCC4(CC3)C(=O)N(Cc3ccc(F)cc3)CN4c3ccccc3)cc2CN1Cc1ccc(OC(F)(F)F)cc1 [Example 153, 3-(4-Fluoro-benzyl)-8-[1-oxo-2-(4-trifluoromethoxy-benzyl)-2,3-dihydro-1H-isoindol-5-yl]-1-phenyl-1,3,8-triaza-spiro[4.5] decan-4-one]
1280 nM	Cc1cc(C2CCN(C)CC2)cc2c1C(=O)N(Cc1ccc(OC(F)(F)F)cc1)C2 [Example 159, 7-Methyl-5-(1-methyl-piperidin-4-yl)-2-(4-trifluoromethoxy-benzyl)-2,3-dihydro-isoindol-1-one]
4680 nM	CCN1CCN(c2cc3c(c(OC)c2)C(=O)N(Cc2ccc(OC(F)(F)F)cc2)C3)CC1 [Example 127, 5-(4-Ethylpiperazin-1-yl)-7-methoxy-2-(4-trifluoromethoxy-benzyl)-2,3-dihydroisoindol-1-one]
1050 nM	Cc1cc(N2CCN(CC3CCCN(C)C3)CC2)cc2c1C(=O)N(Cc1ccc(OC(F)(F)F)cc1)C2 (centres unmarked) [Example 139, 7-Methyl-5-[4-(1-methyl-piperidin-3-ylmethyl)-piperazin-1-yl]-2-(4-tri-fluoromethoxy-benzyl)-2,3-dihydro-isoindol-1-one]
310 nM	CN(C)[C@H]1CCN(c2cc(Cl)c3c(c2)CN(Cc2ccc(OC(F)(F)F)cc2)C3=O)C1 (stereo in doubt) [Example 144, 7-Chloro-5-(3-dimethylamino-pyrrolidin-1-yl)-2-(4-trifluoromethoxy-benzyl)-2,3-dihydro-isoindol-1-one]

More lines, now with the values behind:

Compound	EC50
O=C1c2c(Cl)cc(Br)cc2CN1Cc1ccc(OC(F)(F)F)cc1 [Example 33, 5-Bromo-7-chloro-2-(4-trifluoromethoxy-benzyl)-2,3-dihydro-isoindol-1-one]	140 nM
Cc1ccc(CN2Cc3cc(-c4cccnc4)ccc3C2=O)cc1 [Example 94, 2-(4-Methylbenzyl)-5-pyridin-3-yl-2,3-dihydroisondol-1-one]	2760 nM
Cc1cc(N2CCNCC2)cc2c1C(=O)N(Cc1ccc(OC(F)(F)F)cc1)C2 [Example 123, 7-Methyl-5-piperazin-1-yl-2-(4-trifluoromethoxy-benzyl)-2,3-dihydroisoindol-1-one]	3850 nM
Cc1cc(N2CCN3CCCCC3C2)cc2c1C(=O)N(Cc1ccc(Cl)cc1)C2 (centres unmarked) [Example 121]	1230 nM
Cc1cc(-c2cccnc2)cc2c1C(=O)N(Cc1ccc(Oc3ccccc3)cc1)C2 [Example 104, 7-Methyl-2-(4-phenoxy-benzyl)-5-pyridin-3-yl-2,3-dihydro-isoindol-1-one]	50 nM
Cc1cc(CNCC(C)O)cc2c1C(=O)N(Cc1ccc(OC(F)(F)F)cc1)C2 (centres unmarked) [Example 52, 5-[(2-Hydroxy-propylamino)-methyl]-7-methyl-2-(4-trifluoromethoxy-benzyl)-2,3-dihydro-isoindol-1-one]	7020 nM
Cc1cc(CNCc2ccccc2)cc2c1C(=O)N(Cc1ccc(OC(F)(F)F)cc1)C2 [Example 45, 5-(Benzylamino-methyl)-7-methyl-2-(4-trifluoromethoxy-benzyl)-2,3-dihydro-isoindol-1-one]	390 nM
Cc1cc(-c2cccnc2)cc2c1C(=O)N(Cc1ccc(OC(F)(F)F)cc1)C2 [Example 95, 7-Methyl-5-pyridin-3-yl-2-(trifluoromethoxybenzyl)-2,3-dihydroisoindol-1-one]	50 nM
Cc1ccc(CN2Cc3cc(NC4CCN(C(=O)OC(C)(C)C)C4)ccc3C2=O)cc1 (centres unmarked) [Example 110, 3-[2-(4-Methyl-benzyl)-1-oxo-2,3-dihydro-1H-isoindol-5-ylamino]-pyrrolidine-1-carboxylic acid tert-butyl ester]	2520 nM
Cc1cc(CN2CCN(c3ccccn3)CC2)cc2c1C(=O)N(Cc1ccc(OC(F)(F)F)cc1)C2 [Example 43, 7-Methyl-5-(4-pyridin-2-yl-piperazin-1-ylmethyl)-2-(4-trifluoromethoxy-benzyl)-2,3-dihydro-isoindol-1-one]	50 nM
Cc1cc(N2CCC(N(C)C)C2)cc2c1C(=O)N(Cc1ccc(OC(F)(F)F)cc1)C2 (centres unmarked) [Example 115, 5-(3-dimethylamino-pyrollidin-1-yl)-7-methyl-2-(4-trifluoromethoxy-benzyl)-2,3-dihydroisoindol-1-one]	300 nM
CCNCc1cc(C)c2c(c1)CN(Cc1ccc(OC(F)(F)F)cc1)C2=O [Example 53, 5-Ethylamino-methyl-7-methyl-2-(4-trifluoromethoxy-benzyl)-2,3-dihydro-isoindol-1-one]	6310 nM
Cc1cc(N2CCN(C)CC2)cc2c1C(=O)N(Cc1ccc(Cl)cc1)C2 [Example 117, 2-(4-chlorobenzyl)-7-methyl-5-(4-methylpiperazin-1-yl)-2,3-di-hydroisoindol-1-one]	1450 nM
Cc1ccc(CN2Cc3cc(C4=CCN(C)CC4)ccc3C2=O)cc1 [Example 89]	9720 nM
O=C1c2c(Cl)cc(Br)cc2CN1Cc1ccc(Cl)cc1 [Example 34, 5-Bromo-7-chloro-2-(4-chloro-benzyl)-2,3-dihydro-isoindol-1-one]	470 nM
Cc1cc(N2CCN(C)CC2)cc2c1C(=O)N(Cc1ccc(Oc3ccccc3)cc1)C2 [Example 114, 7-Methyl-5-(4-methylpiperazin-1-yl)-2-(4-phenoxybenzyl)-2,3-dihydroisoindol-1-one]	280 nM
Cc1cc(CNC2Cc3ccccc3C2)cc2c1C(=O)N(Cc1ccc(OC(F)(F)F)cc1)C2 [Example 48, 5-(Indan-2-ylaminomethyl)-7-methyl-2-(4-trifluoromethoxy-benzyl)-2,3-dihydro-isoindol-1-one]	410 nM
COc1cc(C2=CCNCC2)cc2c1C(=O)N(Cc1ccc(OC(F)(F)F)cc1)C2 [Example 92]	1360 nM
O=C1c2c(Cl)cc(-c3cccnc3)cc2CN1Cc1ccc(OC(F)(F)F)cc1 [Example 105, 7-Chloro-5-pyridin-3-yl-2-(4-trifluoromethoxy-benzyl)-2,3-dihydro-isoindol-1-one]	50 nM
Cc1cc(N2CCN3CCCC3C2)cc2c1C(=O)N(Cc1ccc(Oc3ccccc3)cc1)C2 (centres unmarked) [Example 116, 5-(Hexahydro-pyrrolo[1,2-a]pyrazin-2-yl)-7-methyl-2-(4-phenoxybenzyl)-2,3-dihydroisoindol-1-one]	180 nM
